Results reported in PMC10638401, “Mannich-type modifications of (−)-cannabidiol and (−)-cannabigerol leading to new, bioactive derivatives” (Scientific Reports, 2023).

Experiments:
SZ95 sebocytes [1] = assay: Viability MTT-assay on sebocytes, 48 h; assay type: cell-based, human; details: 30 μM
Experimental: (§1) Human immortalized SZ95 sebocytes, originated from human facial sebaceous glands[50] were provided by prof. Christos C. Zouboulis, and were cultured in Sebomed® Basal Medium (Cat. No. F8205; Sigma-Aldrich) supplemented with 10% FBS (Gibco-Thermo Fisher Scientific), 1 mM CaCl2 (Cat. No. C7902; Sigma-Aldrich), 5 ng/ml human epidermal growth factor (Cat. No. E9644; Sigma-Aldrich), and MycoZap™ Plus-CL (1:500; Lonza). The medium was changed every other day, and cells were subcultured at 60–70% confluence.
The viability of HaCaT keratinocytes and SZ95 sebocytes was determined by MTT-assay[58] (Cat. No. M5655; Sigma-Aldrich) measuring the conversion of the tetrazolium salt to formazan by mitochondrial dehydrogenases. Cells were plated in 96-well plates (20,000 cells/well), and were treated as indicated. Cells were then incubated with 0.5 mg/ml MTT reagent for 3 h, and concentration of formazan crystals (as an indicator of number of viable cells) was determined colorimetrically at 565 nm by using FlexStation 3 multi-mode microplate reader (Molecular Devices). Results were expressed as percentage of vehicle-treated control regarded as 100%.

SZ95 sebocytes [2] = assay: Nile Red-assay, arachidonic acid-induced lipogenesis; assay type: cell-based, human; details: 50 μM arachidonic acid, 48 h
Experimental: as §1
For quantitative measurement of sebaceous (neutral) lipid content, SZ95 sebocytes (20,000 cells/well) were cultured in 96-well “black well/clear bottom” plates (Cat. No. 655090; Greiner Bio-One, Frickenhausen, Germany), and were treated with compounds in the presence or absence of arachidonic acid (AA; Cat. No. 90010; Cayman Chemical Company, Ann Arbor, MI, USA) or its vehicle (absolute ethanol) as indicated. Subsequently, supernatants were discarded, cells were washed twice with phosphate-buffered saline (PBS; 115 mM NaCl, 20 mM Na2HPO4, pH 7.4; all from Sigma-Aldrich), and 100 µl of a 1 µg/ml Nile Red (Cat. No. N3013; Sigma-Aldrich) solution in PBS was added to each well. The plates were then incubated at 37 °C for 30 min, and fluorescence was measured on FlexStation 3 multimode microplate reader (Molecular Devices, San Francisco, CA, USA). Results, measured in relative fluorescence units, are expressed as percentage of the vehicle (absolute ethanol; Cat. No. 20821.296; VWR International)-treated control regarded as 100%, using 485 nm excitation and 565 nm emission wavelengths.

Escherichia coli = assay: Antibacterial effect, broth micro dilution; assay type: cell-based
Pseudomonas aeruginosa = assay: Antibacterial effect, broth micro dilution; assay type: cell-based
[3] = test system: multidrug-resistant Acinetobacter baumannii; assay: Antibacterial effect, broth micro dilution
Experimental: (§2) According to CLSI guideline the Minimal Inhibitory Concentrations (MICs) of the prepared compounds were determined with the broth micro dilution method. After an overnight growth on 5% bovine blood agar plates at 35 °C bacterial strains were suspended in physiological saline in order to reach the density of 0.5 McFarland for inoculation. Stock solutions containing different concentrations of the substances were prepared in DMSO and H2O (1:1). These were twofold serially diluted from 256 to 0.5 mg/l in Mueller–Hinton broth, and 100 ml of each dilution was inoculated with 10 ml of each bacterial suspension.

[4] = test system: Klebsiella pneumoniae carbapenemase-producing bacteria; assay: Antibacterial effect, broth micro dilution
Experimental: as §2

Row | Structure (SMILES) | viability (MTT signal intensity) (SZ95 sebocytes [1]) | effect on the lipogenic effect of arachidonic acid (AA) (SZ95 sebocytes [2]) | antibacterial effect (no effect up to) (Escherichia coli) | antibacterial effect (no effect up to) (Pseudomonas aeruginosa) | antibacterial effect (no effect up to) [3] | antibacterial effect (no effect up to) [4]
1 | C=C(C)[C@@H]1CCC(C)=C[C@H]1c1c(O)cc(CCCCC)c(COCC)c1O [Compound 9] | no such effect on the viability | mimic this lipostatic effect |  |  |  | 
2 | C=C(C)[C@@H]1CCC(C)=C[C@H]1c1c(O)cc(CCCCC)cc1O [Compound 1, (−)-Cannabidiol] | cytotoxic effects | completely prevent the lipogenic effect | > 256 µg/mL | > 256 µg/mL | > 256 µg/mL | > 256 µg/mL
